Laboratory results as given in patent publication US8933028B2, “Use of selective estrogen receptor modulator for joint fusion and other repair or healing of connective tissue” (priority 2010, dated 2015).
“Also recorded” adds a separate entry of the source.

Experiments:
sacroiliac joint = experiment: Effect of oral raloxifene on bone healing after sacroiliac joint fusion with BMP-2; assay type: in vivo, human
Excerpt: The patients involved in the study were female at age of over 60 years old.

[1] = cited from earlier work
bone = settings: postmenopausal women, compared with estrogen; cited from earlier work
endogenous BMP-2 = settings: primarily on the α-estrogen receptor; cited from earlier work
osteoblastic cells = settings: cited from earlier work
fracture healing = settings: primates; cited from earlier work
tendon to bone healing = settings: rat model; cited from earlier work
[2] = raloxifene therapy for osteoporosis

Molecule: O=C(c1ccc(OCCN2CCCCC2)cc1)c1c(-c2ccc(O)cc2)sc2cc(O)ccc12 [raloxifene]
- bone healing or bone graft incorporation versus raloxifene immediately following surgery (sacroiliac joint; delayed raloxifene administration): not as complete
- recovery versus control patients with BMP-2 only (sacroiliac joint; delayed raloxifene administration, some patients): superior recovery results
- bone healing / maturity of bone (sacroiliac joint; females over 60, raloxifene 60 mg/day orally for three months after surgery, BMP-2 at surgery in all patients): Significant improvement
- bone graft incorporation into host bone (images) (sacroiliac joint; females over 60, three months after surgery, BMP-2 at surgery in all patients, FIGS. 5-7): improved incorporation; also recorded: fully healed and incorporated
- fusion result compared with patient who received BMP-2 without raloxifene (sacroiliac joint; postmenopausal women, local BMP-2 and oral raloxifene, three months): better than normal healing
- stimulation of the uterus or breasts [1, 2]: does not stimulate
- tolerability [1, 2]: well tolerated
- occurrence of uterine bleeding, thrombophlebitis, breast abnormalities, or increased endometrial thickness ([1]; raloxifene treated groups versus control): no differences among groups
- activation frequency, bone formation rate or bone volume (bone): did not decrease
- effect on endogenous BMP-2 (potentiation / secretion) (endogenous BMP-2): similar
- effect on TNF-α induced apoptosis (osteoblastic cells): anti-apoptotic effect

Molecule: FGF-2: fibroblast growth factor-2, likely potent bone anabolic agent
- fracture healing (fracture healing): accelerates fracture healing and prevents nonunion

Molecule: estrogen
- effect on endogenous BMP-2 (potentiation / secretion) (endogenous BMP-2): direct measurable effect

B1: rhPTH: Recombinant Human Parathyroid Hormone (protein, UniProt P01270 32-115, looked up)
Parathyroid hormone: SVSEIQLMHNLGKHLNSMERVEWLRKKLQDVHNFVALGAPLAPRDAGSQRPRKKEDNVLVESHEKSLGEADKADVNVLTKAKSQ
modifications: Parathyroid hormone
- tendon repair and tendon qualities (tendon to bone healing): improved
